We go through 18 compounds from patent publication US20240301319A1, “PERFUMING COMPOSITIONS” (FIRMNICH SA, priority 2017, published 2024).

Data set [1] is described as follows: Volatility of perfuming compounds (Tables 4 to 10), with top/middle/bottom note type. In kind it is physicochemical. The method, then: In some aspects, the first perfume accord comprises perfuming compounds having a volatility ranging from 70,000 to 100 μg/l in air. In some aspects, perfuming compounds having a volatility ranging from 70,000 to 100 μg/l in air are referred to as “top notes”.
In some aspects, the second perfume accord comprises perfuming compounds having a volatility ranging from 99 to 50 μg/l in air. In some aspects, perfuming compounds having a volatility ranging from 99 to 50 μg/l in air are referred to as “middle notes”.
In some aspects, the third perfume accord comprises perfuming compounds having a volatility ranging from 49 to 0.1 μg/l in air. In some aspects, perfuming compounds having a volatility ranging from 49 to 0.1 μg/l in air are referred to as “bottom notes”.
Tables 4 to 10 describe top, middle and bottom note perfuming compounds for watery, green, fruity, citrus, sweet, gourmand and woody notes respectively.

The nature of data set [2]: Odor threshold and odor value of perfuming compounds (Tables 4 to 10).
The mark [3] stands for this setting: Table 8, perfuming compounds having a sweet note.
The mark [4] stands for this setting: Table 8, perfuming compounds having a sweet note, note type by volatility.
Setting [5] is: Table 9, perfuming compounds having a gourmand note, note type by volatility.
Where [6] appears, read: note type (Top/Middle/Bottom) by volatility, perfuming compounds having a green note.
Setting [7] is: perfuming compounds having a green note.
Setting [8] is: Table 7, citrus note, top, middle or bottom note.
The mark [9] stands for this setting: Table 7, citrus note, equals volatility divided by odor threshold.
The mark [10] stands for this setting: Table 6, perfuming compounds having a fruity note.
Where [11] appears, read: Table 6, perfuming compounds having a fruity note, note type by volatility.
[12] abbreviates: Table 10, perfuming compounds having a woody note, note type by volatility.

Consider `CCCCCC(=O)O` [HEXANOIC ACID], for which the Volatility in data set [1] (setting [3]) is listed as 197.90 μg/l air; in data set [1] (Table 9, gourmand note) it was 197.90 μg/l air. Further, the Type entry in data set [1] (setting [4]), in data set [1] (setting [5]) and in data set [1] (setting [6]) was “Top” in each case. The “Volatility (μg/l air)” value in data set [1] (setting [7]) worked out at 197.90 μg/l air. Further, the “Odor Threshold” value in data set [2] (setting [3]) worked out at 1.82E−02 μg/l air; in data set [2] (Table 9, gourmand note), 1.82E−02 μg/l air. In addition, the “Odor Value” in data set [2] (setting [3]) stood at 1.09E+04. Also, in data set [2] (setting [7]), the “Odor Threshold (μg/l air)” value worked out at 1.82E−02 μg/l air.

Turning to `C=CCSSCC=C` [DIALLYL DISULFIDE], the Volatility in data set [1] (setting [3]) was found to be 5487.52 μg/l air; in data set [1] (Table 9, gourmand note), 5487.52 μg/l air. For the same compound, the Type entry in data set [1] (setting [4]) and in data set [1] (setting [5]) was “Top” throughout. The “Odor Threshold” value is given as 3.98E−05 μg/l air in data set [2] (setting [3]) and 3.98E−05 μg/l air in data set [2] (Table 9, gourmand note). Further, in data set [2] (setting [3]), the “Odor Value” is listed as 1.38E+08.

With `CC(C)CCCC(C)CCO` (racemic), the “Volatility (μg/l air)” value in data set [1] (Table 7, citrus note) came out at 76.57 μg/l air. Further, the Type result in data set [1] (setting [8]) is given as “Middle”. In addition, the “Odor Threshold (μg/l air)” value in data set [2] (Table 7, citrus note) is reported as 4.59E−02 μg/l air. In data set [2] (setting [9]), the “Odor Value” stood at 1.67E+03.

Consider `CC/C=C\CC1=C(C)CCC1=O`, for which the Volatility in data set [1] (setting [3]) came out at 56.72 μg/l air; in data set [1] (Table 9, gourmand note), 56.72 μg/l air. Also, the Type entry in data set [1] (setting [4]) and in data set [1] (setting [5]) was “Middle” throughout. Besides, the “Odor Threshold” value was 2.16E−04 μg/l air in data set [2] (setting [3]) and 2.16E−04 μg/l air in data set [2] (Table 9, gourmand note). In addition, the “Odor Value” in data set [2] (setting [3]) was 2.63E+05.

Turning to `CCCCCCCCC1CCC(=O)O1` (racemic) [(+−)-5-octyldihydro-2(3H)-furanone], the Volatility in data set [1] (setting [10]) is on record as 1.44 μg/l air. Also, the Type entry in data set [1] (setting [11]) is recorded as “Bottom”. For the same compound, in data set [2] (setting [10]), the “Odor Threshold” value is on record as 2.85E−05 μg/l air and the “Odor Value” turned out to be 5.05E+04.

In the case of `COC(C)(C)CCCC(C)C(C)O` (racemic), in data set [1] (setting [12]), the Type result is reported as “Bottom”. This compound also yielded a Volatility in data set [1] (Table 10, woody note) of 35.54 μg/l air. The “Odor Threshold” value in data set [2] (Table 10, woody note) is on record as 2.66E−02 μg/l air.

In data set [1] (setting [10]), `C=CCCCCCCCCO` [9-DECEN-1-OL] had a Volatility of 26.88 μg/l air. Moreover, the Type entry in data set [1] (setting [11]) and in data set [1] (setting [8]) was “Bottom” each time. Further, the “Volatility (μg/l air)” value in data set [1] (Table 7, citrus note) is reported as 26.88 μg/l air. Further, the “Odor Threshold” value in data set [2] (setting [10]) is given as 8.92E−03 μg/l air. The “Odor Value” in data set [2] (setting [10]) and in data set [2] (setting [9]) was 3.01E+03 throughout. Moreover, the “Odor Threshold (μg/l air)” value in data set [2] (Table 7, citrus note) worked out at 8.92E−03 μg/l air.

With `C=C/C=C/C=C\CCCCC`, the Type result in data set [1] (setting [6]) is “Top”. In addition, the “Volatility (μg/l air)” value in data set [1] (setting [7]) was determined as 1247.28 μg/l air. In data set [2] (setting [7]), the “Odor Threshold (μg/l air)” value is listed as 3.76E−05 μg/l air.

For `CCCC(S)CCOC` (racemic) [(+−)-1-METHOXY-3-HEXANETHIOL], the Type entry in data set [1] (setting [6]) is on record as “Top”. Moreover, in data set [1] (setting [7]), the “Volatility (μg/l air)” value was 2534.77 μg/l air. For the same compound, the “Odor Threshold (μg/l air)” value in data set [2] (setting [7]) is recorded as 1.92E−07 μg/l air.

For the compound `O=C/C=C/c1ccccc1` [(E)-3-PHENYL-2-PROPENAL], the Type result in data set [1] (setting [12]) is recorded as “Middle”. In data set [1] (Table 10, woody note), this compound gave a Volatility of 70.14 μg/l air. For the same compound, the “Odor Threshold” value in data set [2] (Table 10, woody note) is 1.36E−03 μg/l air.

As for `C/C=C/c1ccc(OC)cc1` [1-methoxy-4-[(1E)-1-propen-1-yl]benzene], the Volatility in data set [1] (setting [10]) stood at 184.60 μg/l air; in data set [1] (setting [3]), 184.60 μg/l air; in data set [1] (Table 9, gourmand note), 184.60 μg/l air. For the same compound, the Type result is on record as “TOP (perfuming compounds having a volatility ranging from 70,000 to 100 μg/l in air are referred to as “top notes”)” in data set [1] (setting [11]), “Top” in data set [1] (setting [4]) and “Top” in data set [1] (setting [5]). The “Odor Threshold” value was found to be 1.23E−03 μg/l air in data set [2] (setting [3]) and 1.23E−03 μg/l air in data set [2] (Table 9, gourmand note). The “Odor Value” in data set [2] (setting [3]) came out at 1.51E+05.

The compound `CC(=O)OC(CC(C)C)CC(C)C` [1-ISOBUTYL-3-METHYLBUTYL ACETATE] showed a Volatility in data set [1] (setting [10]) of 5265.61 μg/l air. For the same compound, the results for the Type result in data set [1] (setting [11]) and in data set [1] (setting [6]) were “TOP (perfuming compounds having a volatility ranging from 70,000 to 100 μg/l in air are referred to as “top notes”)” and “Top”, respectively. Moreover, the “Volatility (μg/l air)” value in data set [1] (setting [7]) was 5265.61 μg/l air. The “Odor Threshold (μg/l air)” value in data set [2] (setting [7]) was found to be 1.62E+00 μg/l air.

With `CC(=O)OCCc1ccccc1` [2-PHENYLETHYL ACETATE], the Volatility in data set [1] (setting [10]) is on record as 201.26 μg/l air; in data set [1] (setting [3]), 201.26 μg/l air; in data set [1] (Table 9, gourmand note), 201.26 μg/l air. For the same compound, the Type result in data set [1] (setting [11]) is reported as “TOP (perfuming compounds having a volatility ranging from 70,000 to 100 μg/l in air are referred to as “top notes”)”; in data set [1] (setting [4]), “Top”; in data set [1] (setting [5]), “Top”. Moreover, the “Odor Threshold” value is recorded as 2.14E−03 μg/l air in data set [2] (setting [3]) and 2.14E−03 μg/l air in data set [2] (Table 9, gourmand note). Moreover, the “Odor Value” in data set [2] (setting [3]) is given as 9.38E+04.

For `CCCCCC1CCCC1=O` (racemic) [(+−)-2-pentylcyclopentanone], the Volatility in data set [1] (setting [10]) was determined as 560.22 μg/l air; in data set [1] (setting [3]), 560.22 μg/l air; in data set [1] (Table 9, gourmand note), 560.22 μg/l air. Also, the Type entry in data set [1] (setting [11]) is reported as “TOP (perfuming compounds having a volatility ranging from 70,000 to 100 μg/l in air are referred to as “top notes”)”; in data set [1] (setting [4]), “Top”; in data set [1] (setting [5]) it was “Top”. Besides, the “Odor Threshold” value in data set [2] (setting [3]) was determined as 1.28E−03 μg/l air; in data set [2] (Table 9, gourmand note), 1.28E−03 μg/l air. Besides, the “Odor Value” in data set [2] (setting [3]) is recorded as 4.38E+05.

Take `C/C=C/c1ccc(O)c(OC)c1` [2-methoxy-4-[(1E)-1-propen-1-yl]phenol]: the Volatility in data set [1] (setting [3]) is 11.28 μg/l air; in data set [1] (Table 9, gourmand note) it was 11.28 μg/l air. The Type entry in data set [1] (setting [4]) and in data set [1] (setting [5]) was “Bottom” throughout. The “Odor Threshold” value in data set [2] (setting [3]) was found to be 6.63E−06 μg/l air; in data set [2] (Table 9, gourmand note), 6.63E−06 μg/l air. Further, in data set [2] (setting [3]), the “Odor Value” is 1.70E+06.

Compound `C=CC(C)(O)CCC=C(C)C` (racemic) [(+−)-3,7-dimethyl-1,6-octadien-3-ol] had a Volatility in data set [1] (setting [10]) of 896.72 μg/l air. In addition, the Type entry in data set [1] (setting [11]) is on record as “TOP (perfuming compounds having a volatility ranging from 70,000 to 100 μg/l in air are referred to as “top notes”)”; in data set [1] (setting [8]), “Top”. The “Volatility (μg/l air)” value in data set [1] (Table 7, citrus note) was found to be 896.72 μg/l air. Also, the “Odor Threshold (μg/l air)” value in data set [2] (Table 7, citrus note) was found to be 8.89E−05 μg/l air. Also, in data set [2] (setting [9]), the “Odor Value” is reported as 1.01E+07.

`CC1=C[C@H](C)[C@H]2[C@H](CCC(C)(C)[C@H]2O)C1` (racemic) showed a Volatility in data set [1] (setting [10]) of 48.90 μg/l air. For the same compound, the Type result in data set [1] (setting [11]) and in data set [1] (setting [6]) was “Bottom” in each case. Also, in data set [1] (setting [7]), the “Volatility (μg/l air)” value is listed as 48.90 μg/l air. Further, the “Odor Threshold” value in data set [2] (setting [10]) is given as 8.15E−04 μg/l air. Besides, the “Odor Value” in data set [2] (setting [10]) amounted to 6.00E+04. Moreover, in data set [2] (setting [7]), the “Odor Threshold (μg/l air)” value amounted to 8.15E−04 μg/l air.

For the compound `Cc1occc(=O)c1O` [3-HYDROXY-2-METHYL-4(4H)-PYRANONE], the Volatility in data set [1] (setting [10]) and in data set [1] (setting [3]) was 92.42 μg/l air in each case. Besides, the Type entry in data set [1] (setting [11]) and in data set [1] (setting [4]) was “Middle” throughout. Besides, the “Odor Threshold” value in data set [2] (setting [10]) and in data set [2] (setting [3]) was 4.17E−04 μg/l air in each case. Moreover, the “Odor Value” in data set [2] (setting [10]) and in data set [2] (setting [3]) was 2.22E+05 each time.
